{
  "source": "paper PMC9894841",
  "about": "“Characterisation of a cyclic peptide that binds to the RAS binding domain of phosphoinositide 3-kinase p110α” (Scientific Reports, 2023)",
  "key": {"[1]": {"target": "p110α (p110α/p85α) (Homo sapiens, UniProt P42336)", "sequence (P42336 whole entry, species assumed)": "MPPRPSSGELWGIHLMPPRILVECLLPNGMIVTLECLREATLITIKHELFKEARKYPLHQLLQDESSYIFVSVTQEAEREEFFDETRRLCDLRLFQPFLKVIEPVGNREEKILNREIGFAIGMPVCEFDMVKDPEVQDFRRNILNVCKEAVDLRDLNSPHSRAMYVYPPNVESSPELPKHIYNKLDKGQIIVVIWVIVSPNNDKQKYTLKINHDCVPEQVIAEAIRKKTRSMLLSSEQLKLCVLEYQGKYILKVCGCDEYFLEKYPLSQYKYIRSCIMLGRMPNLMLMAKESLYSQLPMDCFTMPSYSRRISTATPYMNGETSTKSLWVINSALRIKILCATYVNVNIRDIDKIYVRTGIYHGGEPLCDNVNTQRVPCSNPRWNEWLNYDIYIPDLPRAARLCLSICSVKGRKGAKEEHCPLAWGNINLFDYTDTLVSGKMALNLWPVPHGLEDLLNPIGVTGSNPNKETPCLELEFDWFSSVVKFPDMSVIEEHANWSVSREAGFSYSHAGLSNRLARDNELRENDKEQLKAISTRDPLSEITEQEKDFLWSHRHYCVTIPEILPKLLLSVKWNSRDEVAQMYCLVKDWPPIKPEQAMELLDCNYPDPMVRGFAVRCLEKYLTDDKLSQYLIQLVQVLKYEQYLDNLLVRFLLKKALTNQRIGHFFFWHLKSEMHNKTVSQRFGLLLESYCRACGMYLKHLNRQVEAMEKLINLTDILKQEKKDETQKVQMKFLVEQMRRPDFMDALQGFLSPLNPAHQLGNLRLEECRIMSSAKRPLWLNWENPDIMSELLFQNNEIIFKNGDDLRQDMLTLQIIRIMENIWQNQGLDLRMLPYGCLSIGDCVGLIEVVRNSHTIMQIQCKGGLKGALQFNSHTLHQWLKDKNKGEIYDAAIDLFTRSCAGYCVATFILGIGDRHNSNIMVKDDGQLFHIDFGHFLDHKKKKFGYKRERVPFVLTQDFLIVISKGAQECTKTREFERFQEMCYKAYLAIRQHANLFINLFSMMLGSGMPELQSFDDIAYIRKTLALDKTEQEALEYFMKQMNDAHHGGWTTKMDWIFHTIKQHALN", "sequence (P27986 whole entry partner, species assumed)": "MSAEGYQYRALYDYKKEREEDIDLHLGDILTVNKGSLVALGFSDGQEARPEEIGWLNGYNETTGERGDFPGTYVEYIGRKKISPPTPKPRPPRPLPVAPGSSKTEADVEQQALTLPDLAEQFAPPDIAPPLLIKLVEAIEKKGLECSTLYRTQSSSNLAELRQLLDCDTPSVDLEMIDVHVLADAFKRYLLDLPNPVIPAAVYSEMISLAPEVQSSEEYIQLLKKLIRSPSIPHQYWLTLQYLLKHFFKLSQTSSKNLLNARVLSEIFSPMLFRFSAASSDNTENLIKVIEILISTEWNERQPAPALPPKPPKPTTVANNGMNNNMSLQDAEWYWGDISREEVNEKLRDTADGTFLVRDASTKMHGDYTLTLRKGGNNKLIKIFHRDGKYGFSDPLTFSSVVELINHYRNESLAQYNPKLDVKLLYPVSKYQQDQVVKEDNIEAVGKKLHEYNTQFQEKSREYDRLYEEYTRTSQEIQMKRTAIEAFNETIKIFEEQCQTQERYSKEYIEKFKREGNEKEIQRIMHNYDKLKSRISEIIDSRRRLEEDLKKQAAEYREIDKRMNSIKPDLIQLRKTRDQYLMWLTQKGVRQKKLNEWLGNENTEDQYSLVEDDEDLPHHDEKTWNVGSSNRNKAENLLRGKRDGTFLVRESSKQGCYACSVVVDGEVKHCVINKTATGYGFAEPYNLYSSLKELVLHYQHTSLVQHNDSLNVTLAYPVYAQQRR", "test": "Microscale thermophoresis (MST) binding to labelled p110α/p85α"}, "[2]": {"target": "p110α/KRAS interaction (Homo sapiens, UniProt P42336)", "sequence (P42336 whole entry, species assumed)": "as the sequence (P42336 whole entry, species assumed) above", "sequence (P27986 whole entry partner, species assumed)": "as the sequence (P27986 whole entry partner, species assumed) above", "test": "MST competition assay of the p110α/KRAS interaction", "assay_type": "binding", "conditions": "20 µM peptide", "experimental": "We next wanted to test whether the cyclo-CRVLIR peptide is capable of inhibiting the p110α/KRAS interaction.\nMeasurements were performed using a NanoTemper Monolith™ NT.115 instrument (NanoTemper Technologies GmbH, München, Germany). Protein samples were labelled with the amine reactive dye NT-647 (or NT-495) using the Monolith™ NT.115 Protein Labeling Kit RED-NHS (or Monolith™ NT.115 Protein Labeling Kit BLUE-NHS). Labelling levels (generally in the range 0.3–0.4 dye molecules per protein molecule) were determined using calculated extinction coefficients for the protein and ε647 = 250,000 M^−1 cm^−1 (or ε495 = 70,000 M^−1 cm^−1) for the dye concentration. In a typical experiment […] aliquots of a 100 nM stock solution of labelled protein were mixed with […] aliquots of a serial dilution of binding partner. These solutions were then loaded into standard treated capillaries and MST measurements were performed at 25 °C using 20–40% LED power and 40–60% IR-Laser power. The laser Laser-On time was 30 s and Laser-Off time 5 s. All measurements were performed at least five times."}, "[3]": {"target": "p110α (Homo sapiens, UniProt P42336)", "sequence (P42336 whole entry, species assumed)": "as the sequence (P42336 whole entry, species assumed) above", "sequence (P27986 whole entry partner, species assumed)": "as the sequence (P27986 whole entry partner, species assumed) above", "test": "NMR STD and Water-LOGSY interaction with p110α", "assay_type": "binding", "conditions": "1 mM peptide, 8 µM p110α", "experimental": "Here we chose Nuclear Magnetic Resonance (NMR) as an orthogonal technique to detect the cyclo-CRVLIR binding to p110α. We applied two commonly used NMR-based techniques that can detect protein/ compound interaction: STD (Saturation transfer difference), and Water-LOGSY (water-ligand observed through gradient spectroscopy)[34],[35].\nNMR experiments were performed at 20 °C using a Bruker Avance IIIHD spectrometer operating at 700 MHz. STD experiments employed off-resonance saturation (2 s) at − 40 ppm, and on-resonance at − 1 ppm. Waterlogsy experiments used a mixing time of 1.5 s."}, "[4]": {"test_system": "H1792 cells", "test": "Western blot of phospho-AKT / phospho-ERK in H1792 cells", "assay_type": "cell-based, human", "conditions": "4 h", "experimental": "We treated the human lung cancer cell line H1792, growing at steady-state in Roswell Park Memorial Institute (RPMI) 1640 media with 10% Foetal Calf Serum (FCS), with the seven cyclic peptides at three different concentrations (2, 10 and 50 µM) for 4 h. After treatment we measured the effect of the peptides on the phosphorylation levels of AKT (pAKT-Ser473), a key downstream effector of p110α activity. […] In contrast, the phosphorylation levels of ERK (p-ERK), which is a downstream effector of the RAS/RAF/MEK/ERK pathway and is independent of p110α activity, were not affected.\nThe next day, 1 ml of medium was removed and the cells were treated with different peptide concentrations for 4 h. All peptides were dissolved in 25 mM Tris pH8, 100 mM NaCl and 1 mM TCEP. Cells were then harvested and lysed for SDS-PAGE and western blot analysis. Anti-calnexin antibody was obtained from Abcam. Antibodies directed against phospho-T202/Y204-ERK, ERK, phospho-S473-AKT and AKT were obtained from Cell Signaling. After western blotting, calnexin, AKT and phospho-AKT signals were quantified using ImageJ and statistical tests were done using Prism software."}, "[5]": {"test_system": "H1373 cells", "test": "Western blot of phospho-AKT / phospho-ERK in H1373 cells", "assay_type": "cell-based, human", "conditions": "4 h"}, "[6]": {"target": "T1, Sm-KRAS/Lg-RBDα (Homo sapiens, UniProt P42336)", "T1 construct": "Lg-BiT fused to the RBD of either p110α, p110 δ or p110γ; expressed in transfected cells; host or cells: HEK293 (lysate)", "T1 sequence (P42336 187-289 limits assumed)": "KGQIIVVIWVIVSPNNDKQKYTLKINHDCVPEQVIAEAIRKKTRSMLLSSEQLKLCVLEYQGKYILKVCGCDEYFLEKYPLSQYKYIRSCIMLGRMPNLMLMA", "test": "NanoBiT Biochemical Assay (NBBA) Sm-KRAS/Lg-RBDα", "conditions": "HEK293 cell lysate, 50 µM", "excerpt": "We next sought to determine whether cyclo-CRVLIR binds specifically to p110α or if it can also interact with other PI3K isoforms. We chose the NBBA (NanoBiT Biochemical Assay), which was previously developed by our laboratory, as a tool to detect if cyclo-CRVLIR could inhibit the interaction of RAS with p110α, p110 δ and p110γ[36]. The NBBA is biochemical adaptation of the NanoBiT cellular assay that is based on the split luciferase NanoLuc system that uses separate Large-BiT (Lg-BiT) and Small-BiT (Sm-BiT) components, each fused to a protein of interest. When the Lg-BiT and Sm-BiT proteins are brought into close proximity, upon the binding of their cognate target proteins, they produce a luminescence signal. […] Cells were harvested at 48 h post-transfection and the cell lysates tested for the interaction of Sm-KRAS with each of the PI3K binding isoforms in the presence or absence of 50 µM cyclo-CRVLIR.\nThe production of the Sm-KRAS, and the Lg-RBD- of p110α, β, δ, γ constructs and lysate are described in detail in a previous report. The cell lysate was treated with 50 µM cyclo-CRVLIR for 20–30 min before detection by the addition of the Nano-Glo."}, "[7]": {"test": "Solubility of the peptides (in words)", "assay_type": "physicochemical"}},
  "note": "Values joined by “and” are separate entries in the source; they are usually repeats but may differ in a detail not shown here. Identical values can stand only once. “Also recorded” adds a separate entry of the source. Residues, ends and D or L forms follow the SMILES beside them.",
  "data": [
    {"smiles": "CC[C@H](C)[C@@H]1NC(=O)[C@H](CC(C)C)NC(=O)[C@H](C(C)C)NC(=O)[C@H](CCCNC(=N)N)NC(=O)[C@H](CS)NC(=O)[C@H](CCCNC(=N)N)NC1=O", "note": "[cyclo-CRVLIR, Cyclo-CRVLIR] (cyclo(CRVLIR))", "values": [
      {"measurement": "increase in affinity for p110α over cyclo-CRVLAA", "setting": "[1]; MST", "result": "~120", "unit": "fold"},
      {"measurement": "Kd", "setting": "[1]; labelled protein 100 nM, 25 °C", "result": "2900 nM and 3000 nM"},
      {"measurement": "p110α/KRAS interaction in the presence of the peptide", "setting": "[2]", "result": "blocked; also recorded: did not detect the p110α/KRAS interaction; also recorded: inhibits the p110α/RAS interaction"},
      {"measurement": "interaction with p110α by STD and Water-LOGSY NMR", "setting": "[3]", "result": "clear signal of interaction"},
      {"measurement": "effect on phosphorylation levels of ERK (p-ERK)", "setting": "[4]", "result": "not affected"},
      {"measurement": "effect on phospho-AKT (pAKT-Ser473) levels", "setting": "[4]; RPMI 1640 10% FCS, 2, 10 and 50 µM (also 4, 20 and 100 µM)", "result": "dose dependent effect; also recorded: reduces the levels of pAKT"},
      {"measurement": "effect on phospho-AKT (pAKT-S473) levels", "setting": "[5]; H1373 cells, 4, 20 and 100 µM", "result": "inhibition of pAKT; also recorded: reduces the levels of pAKT"},
      {"measurement": "effect on phosphorylation levels of ERK (p-ERK)", "setting": "[5]; H1373 cells", "result": "not affected"},
      {"measurement": "inhibition of the Sm-KRAS/Lg-RBDα interaction signal", "setting": "[6]", "result": "reduction in the interaction signal; also recorded: able to inhibit"},
      {"measurement": "solubility in words", "setting": "[7]", "result": "more soluble than the parent peptide cyclo-CRVLAA; also recorded: significantly more soluble than our original cyclo-CRVLAA peptide"}
    ]}
  ]
}
